According to US20250213550A1, “COMPOUNDS AND METHODS FOR TREATING INFLAMMATORY BOWEL DISEASE” (Gilead Sciences, Inc., priority 2023, published 2025):
Read-outs that look alike come from different tables or passages of the source.

Test system: LPS-stimulated pERK in monocytes (TPL2 pathway)
Assay: Ex vivo LPS-stimulated pERK in monocytes of whole blood after Compound 1 dosing (flow cytometry)
Parameters: species or system human
Conditions: for inhibition at 75 mg: Homo sapiens, Monocyte, 75 mg QD multiple dose, read-out: pERK Signal, % Inhibition
Experimental: For Cohorts 1-4, whole blood PD sampling occurred relative to the dose of Compound 1 at the following time points: • Day 1: 0 pre-dose (≤5 min prior to dosing), 1, 2, 3, 4, 8, 12, 24 and 36 hours post-dose
For Cohorts 5-9, whole blood PD sampling occurred relative to the dose of Compound 1 at the following time points: • Day 1: 0 pre-dose (≤5 min prior to dosing), 1, 2, 3, 4, 8, 12, and 24 hours post-dose • Day 10: 0 pre-dose (≤5 min prior to dosing), 1, 2, 3, 4, 8, 12, 24, 36, 48, 72, 96, and 120 hours post-dose
Whole blood PD Samples were stimulated ex vivo with lipopolysaccharide (LPS) or phosphate buffered saline (PBS), and the phosphorylation of extracellular signal-related kinase (pERK) was detected in monocytes by flow cytometry.
Pharmacodynamic changes after single and multiple doses of Compound 1 were also investigated by monitoring, in whole blood samples, stimulated with either lipopolysaccharide (LPS) or PBS for 15 minutes at 37° C. Changes to the phosphorylation of extracellular signal-regulated kinases (pERK) was measured in monocytes by flow cytometry, defined as CD15−CD14+.
Pharmacodynamic parameters for Compound 1 were calculated as percent change in pERK signal relative to Day 1 pre-dose (baseline) for all evaluable participants.
Multiple Ascending Doses: Pharmacodynamic parameters after multiple doses of Compound 1 were also calculated as percent change in pERK signal relative to Day 1 pre-dose (baseline) for all evaluable participants.

## Cn1ccc2c([C@@H](c3cn(C45CC(C4)C5)nn3)N(C(=O)OCOP(=O)(O)O)c3cc(Cl)c4ncc(C#N)c(NCC(C)(C)C)c4c3)cccc2c1=O [Compound 1]
75 mg QD, Day 10, 12 hours post-last dose
  median percent change in pERK relative to baseline: −48.3%
75 mg QD, Day 10, 24 hours post last dose
  median percent change in pERK relative to baseline: −39.8%
75 mg single dose, 3 hours post-dose
  median change in pERK relative to baseline: −86.8%
75 mg single dose, 12 hours post-dose
  median change in pERK relative to baseline: −51.3%
75 mg single dose, Day 1 1 hour, mean (SD)
  pERK Signal, % Inhibition: 56.4 (13.04) %
75 mg single dose, Day 1 1 hour, median
  pERK Signal, % Inhibition: 62.9%
75 mg single dose, Day 1 3 hours, mean (SD)
  pERK Signal, % Inhibition: 82.7 (10.42) %
75 mg single dose, Day 1 3 hours, median
  pERK Signal, % Inhibition: 86.8%
75 mg single dose, Day 1 12 hours, mean (SD)
  pERK Signal, % Inhibition: 52.2 (6.53) %
75 mg single dose, Day 1 12 hours, median
  pERK Signal, % Inhibition: 51.3%
75 mg single dose, Day 1 24 hours, mean (SD)
  pERK Signal, % Inhibition: 33.6 (4.73) %
75 mg single dose, Day 1 24 hours, median
  pERK Signal, % Inhibition: 33.6%
300 mg QD, Day 10, 12 hours post-last dose
  median percent change in pERK relative to baseline: −95.7%
300 mg QD, Day 10, 24 hours post last dose
  median percent change in pERK relative to baseline: −91.6%
300 mg single dose, 3 hours post-dose
  median change in pERK relative to baseline: −95.6%
300 mg single dose, 12 hours post-dose
  median change in pERK relative to baseline: −76.6%
300 mg single dose, Day 1 1 hour, mean (SD)
  pERK Signal, % Inhibition: 32.2 (35.11) %
300 mg single dose, Day 1 1 hour, median
  pERK Signal, % Inhibition: 29.1%
300 mg single dose, Day 1 3 hours, mean (SD)
  pERK Signal, % Inhibition: 93.4 (5.08) %
300 mg single dose, Day 1 3 hours, median
  pERK Signal, % Inhibition: 95.6%
300 mg single dose, Day 1 12 hours, mean (SD)
  pERK Signal, % Inhibition: 76.0 (7.04) %
300 mg single dose, Day 1 12 hours, median
  pERK Signal, % Inhibition: 76.7%
300 mg single dose, Day 1 24 hours, mean (SD)
  pERK Signal, % Inhibition: 66.4 (2.19) %
300 mg single dose, Day 1 24 hours, median
  pERK Signal, % Inhibition: 65.3%
600 mg BID, Day 10, 12 hours post-last dose
  median percent change in pERK relative to baseline: −100.2%
600 mg BID, Day 10, 24 hours post last dose
  median percent change in pERK relative to baseline: −101.5%
900 mg QD, Day 10, 12 hours post-last dose
  median percent change in pERK relative to baseline: −96.7%
900 mg QD, Day 10, 24 hours post last dose
  median percent change in pERK relative to baseline: −98.5%
900 mg single dose, 3 hours post-dose
  median change in pERK relative to baseline: −99.9%
900 mg single dose, 12 hours post-dose
  median change in pERK relative to baseline: −92.1%
900 mg single dose, Day 1 1 hour, mean (SD)
  pERK Signal, % Inhibition: 74.5 (38.94) %
900 mg single dose, Day 1 1 hour, median
  pERK Signal, % Inhibition: 97.9%
900 mg single dose, Day 1 3 hours, mean (SD)
  pERK Signal, % Inhibition: 99.8 (2.98) %
900 mg single dose, Day 1 12 hours, mean (SD)
  pERK Signal, % Inhibition: 92.7 (3.10) %
900 mg single dose, Day 1 12 hours, median
  pERK Signal, % Inhibition: 92.1%
900 mg single dose, Day 1 24 hours, mean (SD)
  pERK Signal, % Inhibition: 83.6 (7.00) %
900 mg single dose, Day 1 24 hours, median
  pERK Signal, % Inhibition: 85.8%
1500 mg single dose, 3 hours post-dose
  median change in pERK relative to baseline: −99%
1500 mg single dose, 12 hours post-dose
  median change in pERK relative to baseline: −96.3%
1500 mg single dose, Day 1 1 hour, mean (SD)
  pERK Signal, % Inhibition: 74.8 (45.62) %
1500 mg single dose, Day 1 1 hour, median
  pERK Signal, % Inhibition: 97.3%
1500 mg single dose, Day 1 3 hours, mean (SD)
  pERK Signal, % Inhibition: 92.8 (16.61) %
1500 mg single dose, Day 1 3 hours, median
  pERK Signal, % Inhibition: 99.0%
1500 mg single dose, Day 1 12 hours, mean (SD)
  pERK Signal, % Inhibition: 93.0 (6.35) %
1500 mg single dose, Day 1 12 hours, median
  pERK Signal, % Inhibition: 96.3%
1500 mg single dose, Day 1 24 hours, mean (SD)
  pERK Signal, % Inhibition: 94.4 (2.50) %
1500 mg single dose, Day 1 24 hours, median
  pERK Signal, % Inhibition: 94.2%
Day 10 of multiple doses, post-last dose
  time of maximum PD effect: 2 to 4 h
Day 1 1 hour, mean (SD)
  inhibition at 75 mg: 47.9%
Day 1 1 hour, median
  inhibition at 75 mg: 44.9%
Day 1 3 hours, mean (SD)
  inhibition at 75 mg: 67.5%
Day 1 3 hours, median
  inhibition at 75 mg: 79.6%
Day 1 12 hours, mean (SD)
  inhibition at 75 mg: 26.1%
Day 1 12 hours, median
  inhibition at 75 mg: 32.4%
Day 10 1 hour, mean (SD)
  inhibition at 75 mg: 62.2%
Day 10 1 hour, median
  inhibition at 75 mg: 62.7%
Day 10 3 hours, mean (SD)
  inhibition at 75 mg: 85.4%
Day 10 3 hours, median
  inhibition at 75 mg: 88.3%
Day 10 12 hours, mean (SD)
  inhibition at 75 mg: 43.5%
Day 10 12 hours, median
  inhibition at 75 mg: 48.3%
Day 10 24 hours, mean (SD)
  inhibition at 75 mg: 12.6%
Day 10 24 hours, median
  inhibition at 75 mg: 39.8%
